Source: article PMC7180728, “Novel Anthraquinone Compounds Inhibit Colon Cancer Cell Proliferation via the Reactive Oxygen Species/JNK Pathway” (Molecules, 2020)
Converted amounts (≈) assume the structure as drawn. Where two headings read alike, the source gives them in different places. Residues, ends and D or L forms follow the SMILES beside them. *: point of attachment. Cbz = O=C(OCc1ccccc1)*; CH2F = FC*

Key:
HCT116 = assay: MTT cell proliferation assay, HCT116; type: cell-based, human; conditions: for IC50: Homo sapiens, HCT-116, HCT116 colon cancer, 48 h
Description: (§1) The effects of the synthesized amide anthraquinone derivatives on the proliferative activity of eight human cancerous cell lines (EC9706, MCF-7, SGC-7901, HepG2, QBC939, HeLa, HCT116 and SW480) in addition to two normal human cell lines (colorectal FHC and liver HL7702) were evaluated using the standard MTT assay.
(§2) The human esophageal cancer cell line EC9706 was obtained from Cancer Hospital and Institute by Prof. Ming Rong Wang, Chinese Academy Medical of Sciences. The human colorectal carcinoma cell lines HCT116 and SW480, hepatoma cell line HepG2, cervical carcinoma cell line HeLa, breast cancer cell line MCF-7, gastric cancer cell line SGC-7901, cholangiocarcinoma cell line QBC939, normal fetal colon cell line FHC and liver cell line HL-7702 were obtained from the Cell Bank of the Shanghai Chinese Academy of Sciences. All cells were cultured in RPMI 1640 medium containing 100 U/mL penicillin and streptomycin and 10% fetal bovine serum and maintained at 37°C under a 5% CO2 atmosphere.
(§3) We analyzed the inhibitory effects of eight anthraquinone-amino acid derivatives on the proliferation of eight tumor cell lines and two normal cell lines in vitro using MTT assays. Cells were added to a 96-well plate with (5,000 cells per well in 100 µL RPMI-1640 medium). Cells were treated with different concentrations (10–100 μg/mL) of 8a–8h for 48 h and then incubated with 20 μL MTT (5 mg/mL) for another 4 h at 37°C. DMSO (150 μL) was then added to each well to dissolve the formazan crystals. The absorbance of each well was read at 490 nm on a microtiter plate ELISA reader. The mean values were obtained from a minimum of three parallel experiments. IC50 values were calculated.

MCF-7 = assay: MTT cell proliferation assay, MCF-7; type: cell-based; conditions: Homo sapiens, MCF7, MCF-7 breast cancer, 48 h
Description: as §1, §2, §3

EC9708 = assay: MTT cell proliferation assay, EC9706 (Table 1: EC9708); type: cell-based; conditions: Homo sapiens, EC9708 esophageal cancer, 48 h
Description: as §1, §2, §3

QBC939 = assay: MTT cell proliferation assay, QBC939; type: cell-based; conditions: Homo sapiens, QBC939 cholangiocarcinoma, 48 h
Description: as §1, §2, §3

SGC-7901 = assay: MTT cell proliferation assay, SGC-7901; type: cell-based, human; conditions: SGC-7901 gastric cancer
Description: as §1, §2, §3

HeLa = assay: MTT cell proliferation assay, HeLa; type: cell-based; conditions: Homo sapiens, HeLa cervical cancer, 48 h
Description: as §1, §2, §3

SW480 = assay: MTT cell proliferation assay, SW480; type: cell-based; conditions: Homo sapiens, SW480 colon cancer, 48 h
Description: as §1, §2, §3

HepG2 = assay: MTT cell proliferation assay, HepG2; type: cell-based; conditions: Homo sapiens, HepG2 liver cancer, 48 h
Description: as §1, §2, §3

HL-7702 = assay: MTT cell proliferation assay, normal liver cells HL-7702; type: cell-based; conditions: L02, HL-7702 normal human hepatocyte, 48 h
Description: as §1, §2, §3

FHC = assay: MTT cell proliferation assay, normal colorectal cells FHC; type: cell-based; conditions: FHC normal human colorectal mucosa, 48 h
Description: as §1, §2, §3

HCT116 cells = assay: MTT cell viability with or without zVAD-FMK; type: cell-based, human; conditions: zVAD-FMK 5 mM alone, 24 h
Excerpt: Caspases represent a key molecular group in the regulation of apoptosis. In caspases, there is an upstream and downstream relationship between the initiator of apoptosis and executioner. Caspase 3 is one of the key executers of apoptosis, as it is either partially or totally responsible for the proteolytic cleavage of many key proteins. For example, when caspase 9 is activated, it activates caspase 3, which ultimately triggers cell apoptosis. After detecting the expression of the corresponding Bcl-2 family proteins after 8a treatment by western blotting, we went on to detect the expression levels of PARP, caspase 9, cleaved caspase 9, caspase 3, and cleaved caspase 3 proteins. […] After 24 h of treatment with zVAD-FMK, cell viability is 93%.
Figure 7 Effect of 8a on apoptosis-related protein expression. […] PARP, caspase 3, cleaved caspase 3, caspase 9, cleaved caspase 9, Bcl-2, phosphorylated Bcl-2, Bcl-XL, phosphorylated Bcl-xL and Bax were detected by western blot analysis; β-actin was used as a loading control in each lane. Representative data of three independent experiments are shown; (C) and (D) Grayscale analysis of the relative expression of apoptosis-related proteins detected by Western blotting. […] (E) Cells were exposed to 8a (20 μg/mL) and/or zVAD-FMK ([…]) for 24 h, and cell viability was measured by MTT assay. […]

[1] = parameters: method as in PMID 27111664, PMID 28811348; conditions: background statement, no own measurement; cited from earlier work
[2] = parameters: method as in PMID 24096626; conditions: on entering the bloodstream; cited from earlier work
[3] = parameters: method as in earlier work; conditions: cell line not given; compared with 8b 27.87 μg/mL; cited from earlier work
[4] = Homo sapiens, SGC-7901, 48 h, read-out: IC50

SMILES	IC50 (HCT116) [µg/mL]	IC50 (MCF-7) [µg/mL]	IC50 (SGC-7901; [4]) [µg/mL]	IC50 (HeLa) [µg/mL]	IC50 (SW480) [µg/mL]	IC50 (HepG2) [µg/mL]	IC50 (SGC-7901; 48 h) [µg/mL]	melting point [°C]	proliferation of HCT116 cells (in words) (HCT116)	IC50 (EC9708) [µg/mL]	IC50 (QBC939) [µg/mL]	IC50 (HL-7702) [µg/mL]	IC50 (FHC) [µg/mL]	cell viability (HCT116 cells) [%]	water solubility [1]	fraction bound to plasma proteins [2] [%]	IC50 [3] [µg/mL]
COC(=O)C[C@H](NC(=O)[C@H](C)NC(=O)[C@@H](NC(=O)OCc1ccccc1)C(C)C)C(=O)CF [zVAD-FMK, reference compound] (Cbz-Val-Ala-Asp(OMe)-CH2F)														93			
O=C1c2ccccc2C(=O)c2c1ccc(C(=O)N1CCCC1C(=O)O)c2[N+](=O)[O-] (stereo not shown) [Compound 8e]	35.03 ± 0.25 (≈ 88.8 µM)	31.31 ± 0.13 (≈ 79.4 µM)	60.5 (≈ 153 µM)	48.82 ± 0.13 (≈ 124 µM)	60.49 ± 0.07 (≈ 153 µM)	49.07 ± 0.08 (≈ 124 µM)	72.31 ± 0.33 (≈ 183 µM)			47.35 ± 0.21 (≈ 120 µM)	37.73 ± 0.23 (≈ 95.7 µM)	> 1000	> 1000				
Cc1cc(O)c2c(c1)C(=O)c1cc(O)cc(O)c1C2=O [Emodin, emodin]															poor		
O=C1c2c(O)ccc(O)c2C(=O)c2c(NCCNCCO)ccc(NCCNCCO)c21 [MX, mitoxantrone]																> 95	
CC(C)C(NC(=O)c1cc(O)c2c(c1)C(=O)c1cccc(O)c1C2=O)C(=O)O (stereo not shown) [rhein valine]																	33.51 (≈ 87.4 µM)

The next lines start with results.

IC50 (HCT116) [µg/mL]	IC50 (MCF-7) [µg/mL]	IC50 (SGC-7901; [4]) [µg/mL]	IC50 (HeLa) [µg/mL]	IC50 (SW480) [µg/mL]	IC50 (HepG2) [µg/mL]	IC50 (SGC-7901; 48 h) [µg/mL]	melting point [°C]	SMILES	proliferation of HCT116 cells (in words) (HCT116)	IC50 (EC9708) [µg/mL]	IC50 (QBC939) [µg/mL]	IC50 (HL-7702) [µg/mL]	IC50 (FHC) [µg/mL]	cell viability (HCT116 cells) [%]	water solubility [1]	fraction bound to plasma proteins [2] [%]	IC50 [3] [µg/mL]
98.43 ± 0.13 (≈ 267 µM)	342.19 ± 0.22 (≈ 929 µM)	165.3 ± 0.21 (≈ 449 µM)	241.31 ± 0.13 (≈ 655 µM)	155.38 ± 0.14 (≈ 422 µM)	296.42 ± 0.21 (≈ 805 µM)			CC(NC(=O)c1ccc2c(c1[N+](=O)[O-])C(=O)c1ccccc1C2=O)C(=O)O (stereo not shown) [Compound 8f]	significantly inhibited	257.31 ± 0.2 (≈ 699 µM)	357.52 ± 0.08 (≈ 971 µM)	> 1000	> 1000				
86.49 ± 0.02 (≈ 202 µM)	275.52 ± 0.07 (≈ 643 µM)	235.81 ± 0.02 (≈ 550 µM)	122.52 ± 0.05 (≈ 286 µM)	158.37 ± 0.04 (≈ 370 µM)	520.52 ± 0.22 (≈ 1210 µM)			CSCCC(NC(=O)c1ccc2c(c1[N+](=O)[O-])C(=O)c1ccccc1C2=O)C(=O)O (stereo not shown) [Compound 8g]	significantly inhibited	300.18 ± 0.11 (≈ 701 µM)	290.94 ± 0.05 (≈ 679 µM)	> 1000	> 1000				
100.38 ± 0.04 (≈ 235 µM)	546.68 ± 0.31 (≈ 1280 µM)	200.35 ± 0.05 (≈ 470 µM)	334.28 ± 0.04 (≈ 784 µM)	119.93 ± 0.03 (≈ 281 µM)	467.74 ± 0.06 (≈ 1100 µM)			O=C(O)CCC(NC(=O)c1ccc2c(c1[N+](=O)[O-])C(=O)c1ccccc1C2=O)C(=O)O (stereo not shown) [Compound 8h]	significantly inhibited	112.41 ± 0.03 (≈ 264 µM)	112.02 ± 0.03 (≈ 263 µM)	> 1000	> 1000				
27.75 ± 0.11 (≈ 78.3 µM)	26.87 ± 0.06 (≈ 75.8 µM)	60.83 ± 0.12 (≈ 172 µM)	28.7 ± 0.17 (≈ 81 µM)	43.08 ± 0.05 (≈ 122 µM)	40.11 ± 0.02 (≈ 113 µM)			O=C(O)CNC(=O)c1ccc2c(c1[N+](=O)[O-])C(=O)c1ccccc1C2=O [Compound 8d]		41.47 ± 0.14 (≈ 117 µM)	36.71 ± 0.04 (≈ 104 µM)	> 1000	> 1000				
21 ± 0.38 (≈ 53 µM)	30.81 ± 0.05 (≈ 77.7 µM)	67.98 ± 0.18 (≈ 172 µM)	27.87 ± 0.22 (≈ 70.3 µM)	42.4 ± 0.68 (≈ 107 µM)	44 ± 0.53 (≈ 111 µM)			CC(C)C(NC(=O)c1ccc2c(c1[N+](=O)[O-])C(=O)c1ccccc1C2=O)C(=O)O (stereo not shown) [Compound 8b, 1-nitro-2-acyl-anthraquinone valine]		38.94 ± 0.02 (≈ 98.2 µM)	72.88 ± 0.16 (≈ 184 µM)	> 1000	> 1000				
30.12 ± 0.02 (≈ 67.8 µM)	28.26 ± 0.13 (≈ 63.6 µM)	61.6 ± 0.14 (≈ 139 µM)	25.94 ± 0.22 (≈ 58.4 µM)	39.5 ± 0.31 (≈ 88.9 µM)	58.34 ± 0.22 (≈ 131 µM)		> 250	O=C1c2ccccc2C(=O)c2c1ccc(C(=O)NC(Cc1ccccc1)C(=O)O)c2[N+](=O)[O-] (stereo not shown) [Compound 8c]		30.24 ± 0.23 (≈ 68 µM)	34.2 ± 0.42 (≈ 77.1 µM)	> 1000	> 1000				
